# Experimental data reported in US20150105252A1, “SUBSTITUTED PYRAZOLES AS HERBICIDES” (E I DU PONT DE NEMOURS AND COMPANY, priority 2013, published 2015).
# Experiments:
# corn [1] = assay: Test A postemergence; assay type: in vivo, Zea mays
# Procedure, shortened: (§1)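 Injury readout: eye-scored versus untreated controls, 0 to 100. Exposure period: ~10 days, greenhouse. Application: soil-directed spray over sown seed (pre) or spray on seedlings 2–10 cm tall with one or two leaves (post), compound carried in non-phytotoxic solvent including surfactant.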
# morningglory [2] = assay: Test A preemergence; assay type: in vivo, Ipomoea spp.; details: 0 to 100 scale
# Procedure, shortened: as §1
# crabgrass, large [3] = assay: Test A postemergence; assay type: in vivo, Digitaria sanguinalis
# Procedure, shortened: as §1
# foxtail, giant [4] = assay: Test A preemergence; assay type: in vivo, Setaria faberii; details: 0 to 100 scale
# Procedure, shortened: as §1
# morningglory [5] = assay: Test A postemergence; assay type: in vivo, Ipomoea spp.
# Procedure, shortened: as §1
# velvetleaf [6] = assay: Test A postemergence; assay type: in vivo, Abutilon theophrasti
# Procedure, shortened: as §1
# corn [7] = assay: Test A preemergence; assay type: in vivo, Zea mays; details: 0 to 100 scale
# Procedure, shortened: as §1
# barnyardgrass [8] = assay: Test A postemergence; assay type: in vivo, Echinochloa crus-galli; details: Postemergence
# Procedure, shortened: as §1
# rice = assay: Test C flooded paddy test; assay type: in vivo, Oryza sativa; details: Flood
# Source text: (§2) At time of treatment, test pots were flooded to 3 cm above the soil surface, treated by application of test compounds directly to the paddy water, and then maintained at that water depth for the duration of the test. Treated plants and controls were maintained in a greenhouse for 13 to 15 days, after which time all species were compared to controls and visually evaluated. […] A dash (-) response means no test result.
# wheat [9] = assay: Test A postemergence; assay type: in vivo, Triticum aestivum
# Procedure, shortened: as §1
# velvetleaf [10] = assay: Test A preemergence; assay type: in vivo, Abutilon theophrasti; details: 0 to 100 scale
# Procedure, shortened: as §1
# barnyardgrass [11] = assay: Test A preemergence; assay type: in vivo, Echinochloa crus-galli; details: 0 to 100 scale
# Procedure, shortened: as §1
# wheat [12] = assay: Test A preemergence; assay type: in vivo, Triticum aestivum; details: preemergence, 125 g ai/ha; visual injury, 0 to 100 scale, approx. 10 days
# Procedure, shortened: as §1
# sedge, umbrella = assay: Test C flooded paddy test; assay type: in vivo, Cyperus difformis; details: Flood
# Source text: as §2
# foxtail, giant [13] = assay: Test A postemergence; assay type: in vivo, Setaria faberii
# Procedure, shortened: as §1
# crabgrass, large [14] = assay: Test A preemergence; assay type: in vivo, Digitaria sanguinalis; details: 0 to 100 scale
# Procedure, shortened: as §1
# ducksalad = assay: Test C flooded paddy test; assay type: in vivo, Heteranthera limosa; details: Flood
# Source text: as §2
# pigweed [15] = assay: Test A postemergence; assay type: in vivo, Amaranthus retroflexus
# Procedure, shortened: as §1
# barnyardgrass [16] = assay: Test C flooded paddy test; assay type: in vivo, Echinochloa crus-galli; details: Flood
# Source text: as §2
# pigweed [17] = assay: Test A preemergence; assay type: in vivo, Amaranthus retroflexus; details: 0 to 100 scale
# Procedure, shortened: as §1
# [18] = Postemergence, 500 g ai/ha, visual rating after approx. 10 days, 0 to 100 scale (0 no effect, 100 complete control)
# [19] = postemergence, 125 g ai/ha, about 10 days, visual rating on 0 to 100 scale (0 no effect, 100 complete control)
# [20] = Preemergence, 500 g ai/ha, 0 no effect, 100 complete control
# [21] = preemergence, 125 g ai/ha, visual injury, approx. 10 days
# [22] = 125 g ai/ha, 0 to 100 scale, 0 no effect, 100 complete control
# [23] = 500 g ai/ha, visual rating after approx. 10 days, 0 to 100 scale (0 no effect, 100 complete control)
# [24] = 31 g ai/ha, scale 0 to 100 (0 no effect, 100 complete control)
# [25] = 62 g ai/ha, scale 0 to 100 (0 no effect, 100 complete control)
smiles,measurement,setting,value
CNC(=O)c1cc(C)n(Cc2cccc(OC(F)(F)F)c2)n1 [Compound 3],Corn plant response rating,corn [1]; [18],10
same,Corn plant response rating,corn [1]; [19],0
same,Morningglory plant response rating,morningglory [2]; [20],0
same,Morningglory plant response rating,morningglory [2]; [21],0
same,"Crabgrass, Large plant response rating","crabgrass, large [3]; [18]",10
same,"Crabgrass, Large plant response rating","crabgrass, large [3]; [19]",0
same,"Foxtail, Giant plant response rating","foxtail, giant [4]; [20]",20
same,"Foxtail, Giant plant response rating","foxtail, giant [4]; [21]",0
same,Morningglory plant response rating,morningglory [5]; [18],20
same,Morningglory plant response rating,morningglory [5]; [19],10
same,Velvetleaf plant response rating,velvetleaf [6]; [18],20
same,Velvetleaf plant response rating,velvetleaf [6]; [19],0
same,Corn plant response rating,corn [7]; [20],0
same,Corn plant response rating,corn [7]; [21],0
same,Barnyardgrass plant response rating,barnyardgrass [8]; [22],0
same,Barnyardgrass plant response rating,barnyardgrass [8]; [23],0
same,"Plant response rating, Rice",rice; [24],0
same,"Plant response rating, Rice",rice; [25],0
same,"Plant response rating, Rice","rice; 125 g ai/ha, scale 0 to 100",0
same,"Plant response rating, Rice","rice; 250 g ai/ha, scale 0 to 100",0
same,Wheat plant response rating,wheat [9]; [18],0
same,Wheat plant response rating,wheat [9]; [19],0
same,Velvetleaf plant response rating,velvetleaf [10]; [20],0
same,Velvetleaf plant response rating,velvetleaf [10]; [21],0
same,Barnyardgrass plant response rating,barnyardgrass [11]; [20],0
same,Barnyardgrass plant response rating,barnyardgrass [11]; [21],0
same,Wheat plant response rating,wheat [12],0
same,"Plant response rating, Sedge, Umbrella","sedge, umbrella; [24]",0
same,"Plant response rating, Sedge, Umbrella","sedge, umbrella; [25]",0
same,"Plant response rating, Sedge, Umbrella","sedge, umbrella; 125 g ai/ha, scale 0 to 100",0
same,"Plant response rating, Sedge, Umbrella","sedge, umbrella; 250 g ai/ha, scale 0 to 100",0
same,"Foxtail, Giant plant response rating","foxtail, giant [13]; [18]",0
same,"Foxtail, Giant plant response rating","foxtail, giant [13]; [19]",0
same,"Crabgrass, Large plant response rating","crabgrass, large [14]; [20]",30
same,"Crabgrass, Large plant response rating","crabgrass, large [14]; [21]",0
same,"Plant response rating, Ducksalad",ducksalad; [24],40
same,"Plant response rating, Ducksalad",ducksalad; [25],50
same,"Plant response rating, Ducksalad","ducksalad; 125 g ai/ha, scale 0 to 100",50
same,"Plant response rating, Ducksalad","ducksalad; 250 g ai/ha, scale 0 to 100",60
same,Pigweed plant response rating,pigweed [15]; [18],70
same,Pigweed plant response rating,pigweed [15]; [19],20
same,"Plant response rating, Barnyardgrass",barnyardgrass [16]; [24],0
same,"Plant response rating, Barnyardgrass",barnyardgrass [16]; [25],0
same,"Plant response rating, Barnyardgrass","barnyardgrass [16]; 125 g ai/ha, scale 0 to 100",0
same,"Plant response rating, Barnyardgrass","barnyardgrass [16]; 250 g ai/ha, scale 0 to 100",0
same,Pigweed plant response rating,pigweed [17]; [20],100
same,Pigweed plant response rating,pigweed [17]; [21],0
CCNC(=O)c1cc(C)n(Cc2cccc(OC(F)(F)F)c2)n1 [Compound 4],Corn plant response rating,corn [1]; [18],40
same,Corn plant response rating,corn [1]; [19],10
same,Morningglory plant response rating,morningglory [2]; [20],20
same,Morningglory plant response rating,morningglory [2]; [21],0
same,"Crabgrass, Large plant response rating","crabgrass, large [3]; [18]",50
same,"Crabgrass, Large plant response rating","crabgrass, large [3]; [19]",20
same,"Foxtail, Giant plant response rating","foxtail, giant [4]; [20]",60
same,"Foxtail, Giant plant response rating","foxtail, giant [4]; [21]",0
same,Morningglory plant response rating,morningglory [5]; [18],90
same,Morningglory plant response rating,morningglory [5]; [19],30
same,Velvetleaf plant response rating,velvetleaf [6]; [18],30
same,Velvetleaf plant response rating,velvetleaf [6]; [19],10
same,Corn plant response rating,corn [7]; [20],0
same,Corn plant response rating,corn [7]; [21],0
same,Barnyardgrass plant response rating,barnyardgrass [8]; [22],10
same,Barnyardgrass plant response rating,barnyardgrass [8]; [23],40
same,"Plant response rating, Rice",rice; [24],0
same,"Plant response rating, Rice",rice; [25],0
same,"Plant response rating, Rice","rice; 125 g ai/ha, scale 0 to 100",0
same,"Plant response rating, Rice","rice; 250 g ai/ha, scale 0 to 100",0
same,Wheat plant response rating,wheat [9]; [18],0
same,Wheat plant response rating,wheat [9]; [19],0
same,Velvetleaf plant response rating,velvetleaf [10]; [20],10
same,Velvetleaf plant response rating,velvetleaf [10]; [21],0
same,Barnyardgrass plant response rating,barnyardgrass [11]; [20],50
same,Barnyardgrass plant response rating,barnyardgrass [11]; [21],0
same,Wheat plant response rating,wheat [12],0
same,"Plant response rating, Sedge, Umbrella","sedge, umbrella; [24]",0
same,"Plant response rating, Sedge, Umbrella","sedge, umbrella; [25]",0
same,"Plant response rating, Sedge, Umbrella","sedge, umbrella; 125 g ai/ha, scale 0 to 100",0
same,"Plant response rating, Sedge, Umbrella","sedge, umbrella; 250 g ai/ha, scale 0 to 100",60
same,"Foxtail, Giant plant response rating","foxtail, giant [13]; [18]",30
same,"Foxtail, Giant plant response rating","foxtail, giant [13]; [19]",10
same,"Crabgrass, Large plant response rating","crabgrass, large [14]; [20]",90
same,"Crabgrass, Large plant response rating","crabgrass, large [14]; [21]",40
same,"Plant response rating, Ducksalad",ducksalad; [24],0
same,"Plant response rating, Ducksalad",ducksalad; [25],40
same,"Plant response rating, Ducksalad","ducksalad; 125 g ai/ha, scale 0 to 100",50
same,"Plant response rating, Ducksalad","ducksalad; 250 g ai/ha, scale 0 to 100",60
same,Pigweed plant response rating,pigweed [15]; [18],80
same,Pigweed plant response rating,pigweed [15]; [19],70
same,"Plant response rating, Barnyardgrass",barnyardgrass [16]; [24],0
same,"Plant response rating, Barnyardgrass",barnyardgrass [16]; [25],0
same,"Plant response rating, Barnyardgrass","barnyardgrass [16]; 125 g ai/ha, scale 0 to 100",0
same,"Plant response rating, Barnyardgrass","barnyardgrass [16]; 250 g ai/ha, scale 0 to 100",0
same,Pigweed plant response rating,pigweed [17]; [20],100
same,Pigweed plant response rating,pigweed [17]; [21],50
